Measured values as given in patent US20050191290A1, “Means and methods for manipulating hypersensitivity-like responses” (priority 2002, published 2005).
Peptide text beside a SMILES is read from it.

Tested on: healthy male volunteers
Experiment: Phase 1 single rising dose clinical safety study
Assay type: in vivo, human
Text: Primary objective: to study the safety and tolerability of F991 at increasing single dose levels in healthy male volunteers
Design: This study was a double-blind, placebo-controlled, single rising dose study in two alternating panels of eight healthy male volunteers. In each panel, two volunteers received placebo throughout the study and the other six volunteers received three increasing single doses of F991.
Safety assessments: vital signs; adverse events (including eyesight); ECG four times each period; clinical laboratory: on admission for each period
Panel I: period 1: 0.08 mg/kg F991 or placebo iv infusion • period 2: 0.8 mg/kg F991 or placebo iv infusion • period 3: 3.2 mg/kg F991 or placebo iv infusion
Panel II: period 1: 0.32 mg/kg F991 or placebo iv infusion • period 2: 1.6 mg/kg F991 or placebo iv infusion • period 3: 6.4 mg/kg F991 or placebo iv infusion Criteria for Evaluation
Safety: adverse events, clinical laboratory test results, ECG recordings, vital signs and physical examination

[1] = single i.v. doses 0.08-6.4 mg/kg

In the case of `CC(C)C[C@H](NC(=O)[C@H](CS)NC(=O)[C@H](CS)NC(=O)[C@H](Cc1c[nH]cn1)NC(=O)CNC(=O)[C@H](CO)NC(=O)[C@H](Cc1c[nH]c2ccccc12)NC(=O)[C@H](Cc1c[nH]cn1)NC(=O)[C@H](C)N)C(=O)O` [F991] (H-AHWSGHCCL-OH), the safety and tolerability (I.V. single rising doses up to 6.4 mg/kg) is reported as “safe and well tolerated”, the “SAEs during the study” value [1] is reported as “no SAEs” and the “clinical laboratory data, vital signs, ECG and physical examination” value [1] is reported as “no clinically significant abnormalities”. For the same molecule, the “correlation between dose and number, frequency and intensity of AEs” value [1] was “No correlation” and the “most frequently reported AEs for volunteers on active drug” value [1] was “eye disorders”.
